Series [1] concerns MCF-7 human breast cancer cells (fatty acid synthesis pathway activity). Briefly: [14C]acetate incorporation into total lipids. In kind it is cell-based. The conditions noted are these: MCF7, [14C]acetate incorporation into lipids. The method, then:
Measurement of [^14C]acetate Incorporation into Total Lipids and Determination of IC50 of Compounds. This assay measures the incorporation of [^14C]acetate into total lipids and is a measure of fatty acid synthesis pathway activity in vitro. It is utilized to measure inhibition of fatty acid synthesis in vitro.
MCF-7 human breast cancer cells cultured as above, are plated at 5×10^4 cells per well in 24-well plates. Following overnight incubation, the compounds to be tested, solubilized in DMSO, are added at 5, 10, and 20 μg/ml in triplicate, with lower concentrations tested if necessary. DMSO is added to triplicate wells for a vehicle control. C75 is run at 5 and 10 μg/ml in triplicate as positive controls. After 4 hours of incubation, 0.25 μCi of [^14C]acetate (10 μl volume) is added to each well.
After 2 hours of additional incubation, medium is aspirated from the wells and 800 μl of chloroform:methanol (2:1) and 700 μl of 4 mM MgCl2 is added to each well. Contents of each well are transferred to 1.5 Eppendorf tubes, and spun at full-speed for 2 minutes in a high-speed Eppendorf Microcentrifuge 5415D. After removal of the aqueous (upper) layer, an additional 700 μl of chloroform:methanol (2:1) and 500 μl of 4 mM MgCl2 are added to each tube and then centrifuged for 1 minutes as above. The aqueous layer is removed with a Pasteur pipette and discarded. An additional 400 μl of chloroform:methanol (2:1) and 200 μl of 4 mM MgCl2 are added to each tube, then centrifuged and aqueous layer is discarded. The lower (organic) phase is transferred into a scintillation vial and dried at 40° C. under N2 gas. Once dried, 3 ml of scintillant (APB #NBC5104) is added and vials are counted for ^14C. The Beckman Scintillation counter calculates the average cpm values for triplicates.
The IC50 for the compounds is defined as the concentration of drug leading to a 50% reduction in [^14C]acetate incorporation into lipids compared to controls. This is determined by plotting the average cpm for each inhibitor concentration tested, performing linear regression and computing the best-fit line, r^2 values, and 95% confidence intervals. The average cpm values are computed by the Beckman scintillation counter (Model LS6500) for each compound concentration. Computation of linear regression, best-fit line, r^2, and 95% confidence intervals are calculated using Prism Version 3.0 (Graph Pad Software).

The nature of series [2]: Solubility problem noted during the assays. It is filed as physicochemical. The following applies: read-out: Sol Prob (solubility problem at concentration).
For the next series, the system named is HCT116 cells. Briefly: XTT cytotoxicity assay, HCT116 (H). It is filed as cell-based. The conditions noted are these: Homo sapiens, HCT-116. The method, then:
(§1) XTT Cytotoxicity Assay The XTT assay is a non-radioactive alternative for the [^51Cr] release cytotoxicity assay. XTT is a tetrazolium salt that is reduced to a formazan dye only by metabolically active, viable cells. The reduction of XTT is measured spectrophotometrically as OD490-OD650. To measure the cytotoxicity of specific compounds against cancer cells, 9×10^3 MCF-7 human breast cancer cells (shown in the tables as “(M)”), obtained from the American Type Culture Collection are plated per well in 96 well plates in DMEM medium with 10% fetal bovine serum, insulin, penicillin, and streptomycin. Following overnight culture at 37° C. and 5% CO2, the compounds to be tested, dissolved in DMSO, are added to the wells in 1 μl volume at the following concentrations: 80, 40, 20, 10, 5, 2.5, 1.25, and 0.625 μg/ml in triplicate. Additional concentrations are tested if required. 1 μl of DMSO is added to triplicate wells are the vehicle control. C75 is run at 40, 20, […], and 5 μg/ml in triplicate as positive controls. After 72 hours of incubation, cells are incubated for 4 hours with the XTT reagent as per manufacturer's instructions (Cell Proliferation Kit II (XTT) Roche). Plates are read at OD490 and OD650 on a Molecular Devices SpectraMax Plus Spectrophotometer. Three wells containing the XTT reagent without cells serve as the plate blank. XTT data are reported as OD490-OD650. Averages and standard error of the mean are computed using SOFTmax Pro software (Molecular Dynamics). The IC50 for the compounds is defined as the concentration of drug leading to a 50% reduction in OD490-OD650 compared to controls. The OD490-OD650 are computed by the SOFTmax PRO software (Molecular Devices) for each compound concentration. IC50 is calculated by linear regression, plotting the FAS activity as percent of control versus drug concentrations. Linear regression, best-fit line, r^2, and 95% confidence intervals are determined using Prism Version 3.0 (Graph Pad Software). The test was also run against OVCAR3 cells (“OV”), and HCT116 cells (“H”).

In the next series the test system is OVCAR3 cells. Briefly: XTT cytotoxicity assay, OVCAR3 (OV). In kind it is cell-based. The conditions noted are these: Homo sapiens. The method, then: as §1
In series [3] the test system is MCF-7 human breast cancer cells. Briefly: XTT cytotoxicity assay, MCF-7 (M). The conditions noted are these: MCF7, MCF-7, 72 hours. It is filed as cell-based. The method, then: XTT Cytotoxicity Assay The XTT assay is a non-radioactive alternative for the [^51Cr] release cytotoxicity assay. XTT is a tetrazolium salt that is reduced to a formazan dye only by metabolically active, viable cells. The reduction of XTT is measured spectrophotometrically as OD490-OD650. To measure the cytotoxicity of specific compounds against cancer cells, 9×10^3 MCF-7 human breast cancer cells (shown in the tables as “(M)”), obtained from the American Type Culture Collection are plated per well in 96 well plates in DMEM medium with 10% fetal bovine serum, insulin, penicillin, and streptomycin. Following overnight culture at 37° C. and 5% CO2, the compounds to be tested, dissolved in DMSO, are added to the wells in 1 μl volume at the following concentrations: 80, 40, 20, 10, 5, 2.5, 1.25, and 0.625 μg/ml in triplicate. Additional concentrations are tested if required. 1 μl of DMSO is added to triplicate wells are the vehicle control. C75 is run at 40, 20, […], and 5 μg/ml in triplicate as positive controls. After 72 hours of incubation, cells are incubated for 4 hours with the XTT reagent as per manufacturer's instructions (Cell Proliferation Kit II (XTT) Roche). Plates are read at OD490 and OD650 on a Molecular Devices SpectraMax Plus Spectrophotometer. Three wells containing the XTT reagent without cells serve as the plate blank. XTT data are reported as OD490-OD650. Averages and standard error of the mean are computed using SOFTmax Pro software (Molecular Dynamics). The IC50 for the compounds is defined as the concentration of drug leading to a 50% reduction in OD490-OD650 compared to controls. The OD490-OD650 are computed by the SOFTmax PRO software (Molecular Devices) for each compound concentration. IC50 is calculated by linear regression, plotting the FAS activity as percent of control versus drug concentrations. Linear regression, best-fit line, r^2, and 95% confidence intervals are determined using Prism Version 3.0 (Graph Pad Software).

The nature of the next series: Weight loss screen. The conditions noted are these: 60 mg/ml (so in the source), day 1. In kind it is in vivo, Balb/C mice. As to the method: Weight Loss Screen Balb/C mice (Jackson Labs) are utilized for the initial weight loss screening. Animals are housed in temperature and 12 hour day/night cycle rooms and fed mouse chow and water ad lib. Three mice are utilized for each compound tested with vehicle controls in triplicate per experiment. For the experiments, mice are housed separately for each compound tested three mice to a cage. Compounds are diluted in DMSO at 10 mg/ml and mice are injected intraperitoneally with 60 mg/kg in approximately 100 μl of DMSO or with vehicle alone. Mice are observed and weighed daily; average weights and standard errors are computed with Excel (Microsoft). The experiment continues until treated animals reach their pretreatment weights.

Series [4] has as its system MCF-7 human breast cancer cells (fatty acid oxidation pathway activity). As to the kind of experiment: Fatty acid oxidation ([14C]palmitate to acid soluble products). In kind it is cell-based. The method, then: Measurement of Fatty Acid Oxidation and Determination of SC150 of Compounds This assay measures the degradation of [^14C]palmitate into acid soluble products and is a measure of fatty acid oxidation pathway activity in vitro. It is utilized to measure fatty acid oxidation in vitro. MCF-7 human breast cancer cells cultured as above, are plated at 2.5×10^5 cells per well in 24-well plates. Following overnight incubation, the compounds to be tested, solubilized in DMSO, are added at […], 0.39, 1.56, 6.25, 25, and 100 μg/ml in triplicate, with lower concentrations tested if necessary. DMSO is added to triplicate wells for a vehicle control. C75 is run at 5 and 10 μg/ml in triplicate as positive controls. After 1 hour of incubation, medium is removed 100 uM of [^14C] palmitate in cyclodextran and 200 uM carnitine in serum free medium (250 μl volume) is added to each well. After 30 minutes of additional incubation, the reaction is stopped by addition of 2.6N HClO4. Contents of each well are transferred to 1.5 ml Eppendorf tubes and 4N KOH is added. The tubes are incubated for 30 minutes at 60° C. 1 M NaAcetate and 3N H2SO4 is added to each tube and vortexed. The tubes are centrifuged at 1000 rpm for 5 minutes at RT. 250 μl of the supernatant is transferred to a 2 ml eppendorf tube. To each tube is added: 938 μl of chloroform:methanol (1:1), 468 μl chloroform and 281 μl of deionized water. The tubes are vortexed and centrifuged at 1000 rpm for 5 minutes at RT. 750 μl of the upper phase is transferred into a scintillation vial 5 ml of scintillant is added and vials are counted for 1 minute for ^14C. The Beckman Scintillation counter calculates the average cpm values for triplicates. The SC150 for the compounds is defined as the concentration of drug leading to a 150% increase in production of acid soluble products of [^14C] palmitate as compared to untreated controls. This is determined by plotting the average cpm for each inhibitor concentration tested, performing linear regression and computing the best-fit line, r^2 values, and 95% confidence intervals. The average cpm values are computed by the Beckman scintillation counter (Model LS6500) for each compound concentration. Computation of linear regression, best-fit line, r^2, and 95% confidence intervals are calculated using Prism Version 3.0 (Graph Pad Software). If a compound fails to achieve this 150% threshold it is considered negative. The maximum value achieved is also reported (FAO Max).

A further series deals with viral HIV protease (Human immunodeficiency virus type 1 group M subtype B, UniProt P04585). The conditions noted are these: cited from earlier work.
Another series concerns Vero cells. The following applies: cited from earlier work.
The target in series [5] is rat liver acyl-CoA synthetase. The following applies: read-out: 50% inhibition of rat liver acyl-CoA synthetase (converted); cited from earlier work.
Another series has as its system Raji cells. The conditions noted are these: cited from earlier work.
The subject of a further series is Hela cells. The following applies: cited from earlier work.

In brackets after ≈: the same amount, converted by molar mass. Where two headings read alike, the source gives them in different places.

In the case of `CCCCCCCCC1(C)SC(=O)C=C1OCC(=O)Nc1ccc(C#N)cc1` (stereo not shown), the IC50 was > 80 µg/mL in series [1], 5.3 µg/mL (≈ 13.2 µM) in the series with HCT116 cells, 6.6 µg/mL (≈ 16.5 µM) with OVCAR3 cells (OVCAR-3) and 3.8 µg/mL (≈ 9.49 µM) in series [3]. Further, the solubility in series [2] was found to be 80 µg/mL (≈ 200 µM).
For the compound `CCCCCCCCC1(C)SC(=O)C=C1OCC(=O)Nc1ccc(F)cc1` (stereo not shown), the “Weight Loss” value in the series “Weight loss screen” is 60 mg/ml: 2.4% (day 1). For the same compound, the solubility in series [2] (noted under the 14C column, unit inferred) is 80 µg/mL (≈ 203 µM). Moreover, the IC50 with HCT116 cells was 5.6 µg/mL (≈ 14.2 µM); in the series with OVCAR3 cells (OVCAR-3, unit given as ml) it was 11.1 µg/mL (≈ 28.2 µM); in [3] it was 6.5 µg/mL (≈ 16.5 µM). The Emax at 1.56 µg/mL in series [4] (Homo sapiens, MCF7, at 1.56 μg/ml, read-out: FAO Max) was found to be 106%. In series [4] (concentration leading to 150% of control acid soluble products, Neg = threshold not reached), the “FAO SC 150” value is on record as “Neg”.
Consider `CCCCCCCCC1(C)SC(=O)C=C1OCC(=O)Nc1ccc(C(N)=O)cc1` (stereo not shown), for which the IC50 is 12.3 µg/mL (≈ 29.4 µM) in series [1], 10.6 µg/mL (≈ 25.3 µM) with HCT116 cells, 21.5 µg/mL (≈ 51.4 µM) in the series with OVCAR3 cells (OVCAR-3) and 10.2 µg/mL (≈ 24.4 µM) in series [3]. In addition, in [2], the solubility worked out at 80 µg/mL (≈ 191 µM).
Take `C/C=C/C/C=C/CCC(=O)[C@H]1O[C@H]1C(N)=O` [cerulenin, (2S,3R)-2,3-epoxy-4-oxo-7,10 dodecadienoyl amide]: the “concentration at which viral HIV protease is inhibited” value at viral HIV protease is 5 mg/mL.
As for `CCCC=CCC=CC=CC=NN=NO` [Triacsin C, 1-hydroxy-3-(E,E,E-2′,4′,7′-undecatrienylidine) triazene], the “growth inhibition of Vero cells” value in the series on Vero cells is recorded as “inhibit growth”. Also, the IC50 in series [5] was 8.7 µM. In addition, the “growth inhibition in Raji cells” value in the series with Raji cells is “growth inhibition”. Moreover, the “growth inhibition of Hela cells” value with Hela cells is listed as “inhibit growth”.

Values taken from US20110288052A1, “NOVEL COMPOUNDS, PHARMACEUTICAL COMPOSITIONS CONTAINING SAME, AND METHODS OF USE FOR SAME” (priority 2008, published 2011).
